# Experimental data as given in paper PMC5218480 (PLoS ONE, 2017).
# System: MV-4-11 cells
# Test: Gene expression microarray analysis (Affymetrix PrimeView) and GSEA
# Assay type: cell-based, human
# Design: RFU PODN (11730768_x_at) / Fold change /veh PODN (11730768_x_at) / RFU LINC00158 (11744669_a_at) / Fold change /veh LINC00158 (11744669_a_at) / RFU DUSP10 (11751237_a_at) / Fold change /veh DUSP10 (11751237_a_at) / RFU ID3 (11757404_x_at) / Fold change /veh ID3 (11757404_x_at) / RFU PLEKHG5 (11737974_s_at) / Fold change /veh PLEKHG5 (11737974_s_at) / RFU LRRC4B (11730491_at) / Fold change /veh LRRC4B (11730491_at) / RFU GIMAP4 (11747438_a_at) / Fold change /veh GIMAP4 (11747438_a_at) / RFU KRT8 (11758183_x_at) / Fold change /veh KRT8 (11758183_x_at) / RFU CNN1 (11734310_a_at) / Fold change /veh CNN1 (11734310_a_at) / RFU VPS37D (11726825_at) / Fold change /veh VPS37D (11726825_at) / RFU C10orf10 (11716522_x_at) / Fold change /veh C10orf10 (11716522_x_at) / RFU KIR2DL2 /// KIR2DL4 /// KIR2DL5A /// KIR2DL5B /// KIR2DS1 /// KIR2DS2 /// KIR2DS3 /// KIR2DS4 /// KIR3DL3 /// KIR3DL3 /// KIR3DS1 (11738374_at) / Fold change /veh KIR2DL2 /// KIR2DL4 /// KIR2DL5A /// KIR2DL5B /// KIR2DS1 /// KIR2DS2 /// KIR2DS3 /// KIR2DS4 /// KIR3DL3 /// KIR3DL3 /// KIR3DS1 (11738374_at) / RFU C1QL1 (11718748_at) / Fold change /veh C1QL1 (11718748_at) / RFU TMPRSS4 (11747572_a_at) / Fold change /veh TMPRSS4 (11747572_a_at) / RFU HAMP (11756126_x_at) / Fold change /veh HAMP (11756126_x_at) / RFU RNFT2 (11725882_a_at) / Fold change /veh RNFT2 (11725882_a_at) / RFU NR4A2 (11747474_a_at) / Fold change /veh NR4A2 (11747474_a_at) / RFU ABCC12 (11746883_a_at) / Fold change /veh ABCC12 (11746883_a_at) / RFU TMEM136 (11760407_x_at) / Fold change /veh TMEM136 (11760407_x_at) / RFU CLDN22 /// WWC2 (11732394_at) / Fold change /veh CLDN22 /// WWC2 (11732394_at) / RFU HLA-DPB1 (11760878_x_at) / Fold change /veh HLA-DPB1 (11760878_x_at) / RFU SPINT1 (11716480_a_at) / Fold change /veh SPINT1 (11716480_a_at) / RFU GAP43 (11754022_s_at) / Fold change /veh GAP43 (11754022_s_at) / RFU A4GNT (11735810_at) / Fold change /veh A4GNT (11735810_at) / RFU PRB3 (11715151_x_at) / Fold change /veh PRB3 (11715151_x_at) / RFU TUBB4B (11761932_at) / Fold change /veh TUBB4B (11761932_at) / RFU CAPN14 (11732068_a_at) / Fold change /veh CAPN14 (11732068_a_at) / RFU TMCC2 (11721928_a_at) / Fold change /veh TMCC2 (11721928_a_at) / RFU IRGQ (11745062_a_at) / Fold change /veh IRGQ (11745062_a_at) / RFU FAM174B (11720279_a_at) / Fold change /veh FAM174B (11720279_a_at) / RFU TMPRSS4 (11748680_a_at) / Fold change /veh TMPRSS4 (11748680_a_at) / RFU FAM212B (11763350_a_at) / Fold change /veh FAM212B (11763350_a_at) / RFU PLEKHG5 (11743358_a_at) / Fold change /veh PLEKHG5 (11743358_a_at) / RFU ZSCAN30 (11745921_a_at) / Fold change /veh ZSCAN30 (11745921_a_at) / RFU CMKLR1 (11741424_a_at) / Fold change /veh CMKLR1 (11741424_a_at) / RFU LOC101060620 /// MAPK8IP1 (11723275_at) / Fold change /veh LOC101060620 /// MAPK8IP1 (11723275_at) / RFU SPTSSB (11747773_x_at) / Fold change /veh SPTSSB (11747773_x_at) / RFU PRSS12 (11739890_at) / Fold change /veh PRSS12 (11739890_at) / RFU BIN1 (11741810_x_at) / Fold change /veh BIN1 (11741810_x_at) / RFU WNT11 (11732464_a_at) / Fold change /veh WNT11 (11732464_a_at) / RFU C10orf10 (11716521_a_at) / Fold change /veh C10orf10 (11716521_a_at) / RFU C5orf56 (11738089_at) / Fold change /veh C5orf56 (11738089_at) / RFU CYB561 (11721691_x_at) / Fold change /veh CYB561 (11721691_x_at) / RFU ANKRD19P (11752326_a_at) / Fold change /veh ANKRD19P (11752326_a_at) / RFU OR2T12 /// OR2T33 /// OR2T8 (11738714_s_at) / Fold change /veh OR2T12 /// OR2T33 /// OR2T8 (11738714_s_at) / RFU VCAN (11748164_a_at) / Fold change /veh VCAN (11748164_a_at) / RFU JSRP1 (11732532_at) / Fold change /veh JSRP1 (11732532_at) / RFU KRTAP10-11 (11738290_x_at) / Fold change /veh KRTAP10-11 (11738290_x_at) / RFU MYO3A (11730013_a_at) / Fold change /veh MYO3A (11730013_a_at) / RFU EBF3 (11725865_a_at) / Fold change /veh EBF3 (11725865_a_at) / RFU CAMK2N1 (11719241_x_at) / Fold change /veh CAMK2N1 (11719241_x_at) / RFU C5orf56 (11738088_a_at) / Fold change /veh C5orf56 (11738088_a_at) / RFU OLFML3 (11715873_a_at) / Fold change /veh OLFML3 (11715873_a_at) / RFU LOC100653217 /// NTM (11731650_a_at) / Fold change /veh LOC100653217 /// NTM (11731650_a_at) / RFU MAPK11 (11762145_a_at) / Fold change /veh MAPK11 (11762145_a_at) / RFU FIZ1 (11724087_x_at) / Fold change /veh FIZ1 (11724087_x_at) / RFU OASL (11726364_x_at) / Fold change /veh OASL (11726364_x_at) / RFU SOX15 (11748057_x_at) / Fold change /veh SOX15 (11748057_x_at) / RFU CD79A (11719716_a_at) / Fold change /veh CD79A (11719716_a_at) / RFU HIST1H1D (11736915_at) / Fold change /veh HIST1H1D (11736915_at) / RFU CASKIN2 (11723855_a_at) / Fold change /veh CASKIN2 (11723855_a_at) / RFU LOC730098 (11760151_x_at) / Fold change /veh LOC730098 (11760151_x_at) / RFU OR4N2 (11742367_at) / Fold change /veh OR4N2 (11742367_at) / RFU PRRT2 (11749266_a_at) / Fold change /veh PRRT2 (11749266_a_at) / RFU SNX32 (11753110_a_at) / Fold change /veh SNX32 (11753110_a_at) / RFU CDHR5 (11726645_a_at) / Fold change /veh CDHR5 (11726645_a_at) / RFU RCAN1 (11760418_a_at) / Fold change /veh RCAN1 (11760418_a_at) / RFU FAM167A (11723789_a_at) / Fold change /veh FAM167A (11723789_a_at) / RFU FAM26E (11764081_at) / Fold change /veh FAM26E (11764081_at) / RFU ISYNA1 (11749810_s_at) / Fold change /veh ISYNA1 (11749810_s_at) / RFU ACY1 (11761880_at) / Fold change /veh ACY1 (11761880_at) / RFU 11764098_at / Fold change /veh 11764098_at / RFU SAMD14 (11745864_x_at) / Fold change /veh SAMD14 (11745864_x_at) / RFU NPB (11741838_a_at) / Fold change /veh NPB (11741838_a_at) / RFU TMPRSS6 (11731388_a_at) / Fold change /veh TMPRSS6 (11731388_a_at) / RFU KRTAP10-2 (11738614_at) / Fold change /veh KRTAP10-2 (11738614_at) / RFU ARHGAP8 /// PRR5-ARHGAP8 (11727945_x_at) / Fold change /veh ARHGAP8 /// PRR5-ARHGAP8 (11727945_x_at) / RFU KRTAP5-7 /// NADSYN1 (11734609_at) / Fold change /veh KRTAP5-7 /// NADSYN1 (11734609_at) / RFU RASL12 (11751679_a_at) / Fold change /veh RASL12 (11751679_a_at) / RFU CDKN2B (11736163_a_at) / Fold change /veh CDKN2B (11736163_a_at) / RFU PRF1 (11729649_at) / Fold change /veh PRF1 (11729649_at) / RFU, ZNF638 /// ZNF638-IT1 / Fold change vs veh, ZNF638 /// ZNF638-IT1 / RFU, PANK3 / Fold change vs veh, PANK3 / RFU, SH3YL1 / Fold change vs veh, SH3YL1 / RFU, ZEB2 / Fold change vs veh, ZEB2 / RFU, NRIP1 / Fold change vs veh, NRIP1 / RFU, PTTG1IP / Fold change vs veh, PTTG1IP / RFU, CAPN2 / Fold change vs veh, CAPN2 / RFU, MED14 / Fold change vs veh, MED14 / RFU, SNORA58 / Fold change vs veh, SNORA58 / RFU, C1orf63 / Fold change vs veh, C1orf63 / RFU, LRRFIP1 / Fold change vs veh, LRRFIP1 / RFU, NDUFAF7 / Fold change vs veh, NDUFAF7 / RFU, SLC12A2 / Fold change vs veh, SLC12A2 / RFU, IBTK / Fold change vs veh, IBTK / RFU, ESF1 / Fold change vs veh, ESF1 / Fold change vs veh, TMEM50B / RFU, TAOK1 / Fold change vs veh, TAOK1 / RFU, ACBD3 / Fold change vs veh, ACBD3 / RFU, TMA16 / Fold change vs veh, TMA16 / RFU, RWDD3 / Fold change vs veh, RWDD3 / RFU, BCAT1 / Fold change vs veh, BCAT1 / RFU, EDEM3 / Fold change vs veh, EDEM3 / RFU, TMEM33 / Fold change vs veh, TMEM33 / RFU, WDR75 / Fold change vs veh, WDR75 / RFU, AHCTF1 / Fold change vs veh, AHCTF1 / RFU, TFRC / Fold change vs veh, TFRC / RFU, ZDHHC17 / Fold change vs veh, ZDHHC17 / RFU, NOM1 / Fold change vs veh, NOM1 / RFU, ARL8B / Fold change vs veh, ARL8B / RFU, ZBTB11 / Fold change vs veh, ZBTB11 / RFU, TAMM41 / Fold change vs veh, TAMM41 / RFU, KIAA1704 /// LOC100996395 / Fold change vs veh, KIAA1704 /// LOC100996395 / RFU, ING1 / Fold change vs veh, ING1 / RFU, TRMT61B / Fold change vs veh, TRMT61B / RFU, FUBP3 / Fold change vs veh, FUBP3 / RFU, TP53 / Fold change vs veh, TP53 / RFU, TNKS2 / Fold change vs veh, TNKS2 / RFU, ZFP14 / Fold change vs veh, ZFP14 / RFU, ACTR2 / Fold change vs veh, ACTR2 / RFU, PPP3R1 / Fold change vs veh, PPP3R1 / RFU, PIK3R1 / Fold change vs veh, PIK3R1 / RFU, HNRNPA1 / Fold change vs veh, HNRNPA1 / RFU, RNF170 / Fold change vs veh, RNF170 / RFU, ZNF28 / Fold change vs veh, ZNF28 / RFU, RNGTT / Fold change vs veh, RNGTT / RFU, OGT / Fold change vs veh, OGT / RFU, BRD1 / Fold change vs veh, BRD1 / RFU, MARS / Fold change vs veh, MARS / RFU, ZNF655 / Fold change vs veh, ZNF655 / RFU, FAHD1 / Fold change vs veh, FAHD1 / RFU, BDP1 / Fold change vs veh, BDP1 / RFU, LRRCC1 / Fold change vs veh, LRRCC1 / RFU, ARID1A / Fold change vs veh, ARID1A / RFU, ZNF146 / Fold change vs veh, ZNF146 / RFU, ZNF330 / Fold change vs veh, ZNF330 / RFU, GPN3 / Fold change vs veh, GPN3 / RFU, C9orf123 / Fold change vs veh, C9orf123 / RFU, N4BP2L2 / Fold change vs veh, N4BP2L2 / RFU, ARFIP1 / Fold change vs veh, ARFIP1 / RFU, FAM179B / Fold change vs veh, FAM179B / RFU, BCL10 / Fold change vs veh, BCL10 / RFU, UHRF1BP1L / Fold change vs veh, UHRF1BP1L / RFU, BET1 / Fold change vs veh, BET1 / RFU, CNOT2 / Fold change vs veh, CNOT2 / RFU, ZNF268 / Fold change vs veh, ZNF268 / Fold change vs veh, ZNF507 / RFU, DGCR2 / Fold change vs veh, DGCR2 / RFU, WDSUB1 / Fold change vs veh, WDSUB1 / Fold change vs veh, HSP90B1 /// MIR3652 / RFU, ADSS / Fold change vs veh, ADSS / RFU, GK / Fold change vs veh, GK / RFU, ZNF148 / Fold change vs veh, ZNF148 / RFU, TAF9 / Fold change vs veh, TAF9 / RFU, SLC1A5 / Fold change vs veh, SLC1A5 / RFU, SLMO2 / Fold change vs veh, SLMO2 / RFU, ABCC4 / Fold change vs veh, ABCC4 / RFU, LOC101060439 /// RAP1B / Fold change vs veh, LOC101060439 /// RAP1B / RFU, RFX7 / Fold change vs veh, RFX7 / RFU, GTPBP10 / Fold change vs veh, GTPBP10 / RFU, CNEP1R1 / Fold change vs veh, CNEP1R1 / RFU, BIVM-ERCC5 /// ERCC5 / Fold change vs veh, BIVM-ERCC5 /// ERCC5 / RFU, ILF3 / Fold change vs veh, ILF3 / RFU 11762660_at / Fold change /veh 11762660_at / RFU VCAN (11757783_s_at) / Fold change /veh VCAN (11757783_s_at) / RFU DDX43 (11728927_at) / Fold change /veh DDX43 (11728927_at) / RFU KRT8 (11758188_x_at) / Fold change /veh KRT8 (11758188_x_at) / RFU NKD1 (11759106_at) / Fold change /veh NKD1 (11759106_at) / RFU SRD5A1 (11742802_a_at) / Fold change /veh SRD5A1 (11742802_a_at) / RFU TPSAB1 /// TPSB2 (11721975_s_at) / Fold change /veh TPSAB1 /// TPSB2 (11721975_s_at) / RFU GSTM3 (11746129_a_at) / Fold change /veh GSTM3 (11746129_a_at) / RFU IL23R (11737362_x_at) / Fold change /veh IL23R (11737362_x_at) / RFU TMEM51 (11727254_a_at) / Fold change /veh TMEM51 (11727254_a_at) / RFU PIWIL2 (11732686_x_at) / Fold change /veh PIWIL2 (11732686_x_at) / RFU ORM1 (11744905_x_at) / Fold change /veh ORM1 (11744905_x_at) / RFU CCDC152 (11743942_at) / Fold change /veh CCDC152 (11743942_at) / RFU ECM1 (11717891_a_at) / Fold change /veh ECM1 (11717891_a_at) / RFU IL23R (11748794_a_at) / Fold change /veh IL23R (11748794_a_at) / RFU TNFAIP8L3 (11732012_x_at) / Fold change /veh TNFAIP8L3 (11732012_x_at) / RFU MBOAT4 (11741988_at) / Fold change /veh MBOAT4 (11741988_at) / RFU 11764193_at / Fold change /veh 11764193_at / RFU TMEM53 (11763286_at) / Fold change /veh TMEM53 (11763286_at) / RFU MAGEB2 (11727129_at) / Fold change /veh MAGEB2 (11727129_at) / RFU TMEM200A (11744735_a_at) / Fold change /veh TMEM200A (11744735_a_at) / RFU CCDC152 (11751479_a_at) / Fold change /veh CCDC152 (11751479_a_at) / RFU FAM211A (11726209_a_at) / Fold change /veh FAM211A (11726209_a_at) / RFU RGS16 (11746705_a_at) / Fold change /veh RGS16 (11746705_a_at) / RFU VCAN (11755009_s_at) / Fold change /veh VCAN (11755009_s_at) / RFU RHOB (11743442_s_at) / Fold change /veh RHOB (11743442_s_at) / RFU RGS16 (11720943_a_at) / Fold change /veh RGS16 (11720943_a_at) / RFU RGS16 (11720944_at) / Fold change /veh RGS16 (11720944_at) / RFU, VPS4B / Fold change vs veh, VPS4B / RFU, CREB1 / Fold change vs veh, CREB1 / RFU, DNAJC13 / Fold change vs veh, DNAJC13 / RFU, GNAQ / Fold change vs veh, GNAQ / RFU, CDK5R1 / Fold change vs veh, CDK5R1 / RFU, ZRANB3 / Fold change vs veh, ZRANB3 / RFU, CUL4A / Fold change vs veh, CUL4A / RFU, CCNY / Fold change vs veh, CCNY / RFU, UFL1 / Fold change vs veh, UFL1 / RFU, COG3 / Fold change vs veh, COG3 / RFU, DIAPH2 / Fold change vs veh, DIAPH2 / RFU, SKA2 / Fold change vs veh, SKA2 / RFU, AFF3 / Fold change vs veh, AFF3 / RFU, LMF1 / Fold change vs veh, LMF1 / RFU, IPO11 / Fold change vs veh, IPO11 / RFU, DFFB / Fold change vs veh, DFFB / RFU, FOXP1 / Fold change vs veh, FOXP1 / RFU, CARD8 / Fold change vs veh, CARD8 / RFU, STRN3 / Fold change vs veh, STRN3 / RFU, ADK / Fold change vs veh, ADK / RFU, RASSF2 / Fold change vs veh, RASSF2 / RFU, WIPF1 / Fold change vs veh, WIPF1 / RFU, LARP1B / Fold change vs veh, LARP1B / RFU, RASA1 / Fold change vs veh, RASA1 / RFU, RB1 / Fold change vs veh, RB1 / RFU, PPFIA1 / Fold change vs veh, PPFIA1 / RFU, MAT2A / Fold change vs veh, MAT2A / RFU, CCT5 / Fold change vs veh, CCT5 / RFU, WDR92 / Fold change vs veh, WDR92 / RFU, CUX1 / Fold change vs veh, CUX1 / RFU, TTC7A / Fold change vs veh, TTC7A / RFU, TMEM135 / Fold change vs veh, TMEM135 / RFU, DEPTOR / Fold change vs veh, DEPTOR / RFU, CPM / Fold change vs veh, CPM / RFU, DNAJB6 / Fold change vs veh, DNAJB6 / RFU, CACNA2D3 / Fold change vs veh, CACNA2D3 / RFU, DTX4 / Fold change vs veh, DTX4 / RFU, TFCP2 / Fold change vs veh, TFCP2 / RFU, GMCL1 /// GMCL1P1 / Fold change vs veh, GMCL1 /// GMCL1P1 / RFU, AEBP2 / Fold change vs veh, AEBP2 / RFU, SNHG1 /// SNORD22 /// SNORD25 /// SNORD26 /// SNORD27 /// SNORD28 /// SNORD29 /// SNORD31 / Fold change vs veh, SNHG1 /// SNORD22 /// SNORD25 /// SNORD26 /// SNORD27 /// SNORD28 /// SNORD29 /// SNORD31 / Fold change (Aza/veh), C12orf56 (ProbeSet 11735607_a_at) / Fold change (ACY-1035/veh), C12orf56 (ProbeSet 11735607_a_at) / Fold change (Aza/veh), FGFR1OP (ProbeSet 11751329_s_at) / Fold change (ACY-1035/veh), FGFR1OP (ProbeSet 11751329_s_at) / Fold change (Aza/veh), VPS36 (ProbeSet 11739960_a_at) / Fold change (ACY-1035/veh), VPS36 (ProbeSet 11739960_a_at) / RFU SYPL1 (11715823_x_at) / Fold change /veh SYPL1 (11715823_x_at) / RFU IGFBP7 (11715501_s_at) / Fold change /veh IGFBP7 (11715501_s_at) / RFU REEP3 (11722064_at) / Fold change /veh REEP3 (11722064_at) / RFU IGLL1 (11728026_x_at) / Fold change /veh IGLL1 (11728026_x_at): dose or concentration left out as unconfirmed
# Settings: ProbeSet 11717308_a_at; LIST B
compound,measurement,value
Nc1ccc(-c2cccs2)cc1NC(=O)c1ccc2c(c1)cc(C1CC1)n2CCN1CCOCC1 [ACY-1035],"RFU, WDR75",291.65 RFU
